Columns and labels:
Format in all cases: cell-based
[1] = tested on: M21 human melanoma cells; test: Chemoresistance: cell viability with etoposide (MTS); details: etoposide 0.1-100 μM, 48 h
Experimental: In FIG. 10, results are provided showing suppression of FGF-induced drug resistance in M21 melanoma cells. Resistance of melanoma cells was to etoposide-induced apoptosis. M21 human melanoma cells were cultured in DMEM with 1% FBS for 48 h, and then treated with etoposide (0.1-100 μM) in the presence or absence of wt or mutant FGF for 48 h, with cell viability determined.
(§1) Cells were plated on well of 96-well tissue culture plates and serum-starved for 48-72 h in DMEM supplemented with 0-1% FBS. Then cells were treated with etoposide (up to 100 μM) and wt or mutant FGF for additional 24-48 h. Cell viability was determined using CellTiter 96 MTS assay (Promega) and caspases 3/7 activity was determined by using Caspase-Glo 3/7 assay kit (Promega). FIGS. 10 and 11.

[2] = tested on: M21 human melanoma cells; test: Chemoresistance: caspases 3/7 activity with etoposide; details: in presence of wt FGF
Experimental: M21 human melanoma cells were cultured in DMEM with 1% FBS for 48 h, and then treated with etoposide (0.1-100 μM) in the presence or absence of wt or mutant FGF for 48 h.
as §1

[3] = tested on: αvβ3-K562 cells; test: Cell adhesion assay on immobilized FGF-1, αvβ3-K562 cells; details: 1 mM MnCl2
Experimental: Wells of 96-well microtiter plates were coated with FGF-1 at the indicated concentrations and remaining protein binding sites were blocked with 1 mg/ml BSA. Hepes-Tyrode buffer supplemental with 1 mM MnCl2) was used for adhesion assays. Prior to incubation with immobilized FGF-1, αvβ3-K562 cells were treated with 10 μg/ml anti-β3 function-blocking antibody 7E3 (triangle), anti-α5 function-blocking antibody KH72 (square), both 7E3 and KH72 (circle), or mouse IgG (diamond). BSA (cross) was used as a negative control. Data is shown as means+/−SD of triplicate experiments.
(§2) Wells of polystyrene 96-well non-tissue culture plate were coated with wild type or mutants FGF-1 as above. In adhesion assay, cells (10^5 cells/well) in 100 μl of Hepes-Tyrode buffer supplemented with 1 mM Mn^2+ were added to the wells and incubated at 37° C. for 1 h. After non-bound cells were removed by rinsing the wells with the same buffer, bound cells were quantified by measuring endogenous phosphatase activity (Prater et al., 1991)

[4] = tested on: K562 cells; test: Cell adhesion assay on immobilized FGF-1, mock-transfected K562 cells; details: 1 mM MnCl2
Experimental: K562 cells were treated with 10 μg/ml anti-α5 function-blocking antibody KH72 (square) or mouse IgG (diamond) for 10 min on ice. Hepes-Tyrode buffer supplemented with 1 mM MnCl2) was used for adhesion assays. Bound cells were quantified by measuring endogenous phosphatase activity. BSA (cross) was used as a negative control. Data is shown as means+/−SD of triplicate experiments.
as §2

Row | Substance | effect on apoptosis induced by etoposide [1] | effect on caspase activation [2] | adhesion of αvβ3-K562 cells to the immobilized protein [3] | adhesion of mock-transfected K562 cells to the immobilized protein [4]
1 | R50E: FGF-1 mutant with the Arg-50 to Glu (R50E) mutation | enhanced apoptosis | blocked inhibition of caspase activation |  | 
2 | Wild type: human FGF-1 (acidic FGF), wild type, expressed in E. coli |  |  | bound to immobilized FGF-1 in a dose-dependent manner | bound to immobilized FGF-1 in a dose-dependent manner

Reference: patent US8796209B2, “Compositions and methods related to anti-FGF agents” (The Regents of the University of California, priority 2005, dated 2014)
